# Experimental data reported in patent publication US20110230659A1, “CYCLOBUTYL PURINE DERIVATIVE, ANGIOGENESIS PROMOTING AGENT, LUMEN FORMATION PROMOTING AGENT, NEUROCYTE GROWTH PROMOTING AGENT, AND DRUG” (NATIONAL UNIVERSITY CORPORATION KAGAWA UNIVERSITY, priority 2008, published 2011).
# Columns and labels:
# ERK = ERK activation (phosphorylation) immunoblot in HUVEC; type: cell-based, human; conditions: for relative value (−fold) of pERK: 100 μmol/l
# Procedure: First, to a HuMedia-EB2 medium (Kurabo) to which 2 v/v % inactivated fetal bovine serum (FBS) had been added, 2-Cl—C.OXT-A was added so that its concentration became 100 μmol/l. Thus, a medium was prepared. Using the medium, human umbilical vein endothelial cells (HUVEC) were cultured for predetermined periods (0, 10, 20, 30, 45, and 60 minutes).
# After the culture, cells were collected. The collected cells were lysed by adding a cell lysis buffer (SDS-lysis buffer) thereto, and heat-denatured at 95° C. for 5 minutes. The solubilized protein in an amount corresponding to 5 v/v % of the heat-denatured cell lysate was subjected to electrophoresis using 10% SDS-polyacrylamide gel, whereby the solubilized protein was transferred onto a nitrocellulose membrane (Amersham Biosciences). To 20 ml of TBS-T having the following composition, skim milk (Wako) was added so that its concentration became 5%, thus preparing a blocking solution. The resultant nitrocellulose membrane was immersed in the blocking solution and shaken at room temperature for 1 hour.
# (§1) Primary antibodies shown below were diluted 1000-fold by adding them to 5% bovine serum albumin (Sigma)-containing TBS-T, thus preparing a primary antibody solution. The nitrocellulose membrane after being subjected to the blocking was immersed in the primary antibody solution, and shaken at room temperature for 1 hour. The resultant nitrocellulose membrane was immersed in the TBS-T and washed by being shaken for 10 minutes. This washing operation was carried out three times in total.
# as §1, with “Secondary” for “Primary”, “20000-fold” for “1000-fold”, “to” for “to 5% bovine serum albumin (Sigma)-containing”, “secondary” for “primary”, “having undergone” for “after being subjected to”, “reaction with the primary antibodies” for “blocking”
# The enzymes were visualized with SuperSignal (registered trademark) West Pico Chemiluminescent Substrate (Pierce), and detected by being exposed to RX—U X-ray film (FUJIFILM Corporation). From the detected bands, the respective phosphoenzymes and total enzymes were quantified using an NIH image software. Furthermore, the relative value (−fold) of each phosphoenzyme was calculated by substituting the measured value of the phosphoenzyme into the following equation (III).
# Relative value(−fold)of phosphoenzyme=(B/D)/(A/C) (III)
# In the present example, the effect of 2-Cl—C.OXT-A of Example 1 and C.OXT-G of Comparative Example 2 on the activation (phosphorylation) of ERK was examined. In the present example, the amount of each enzyme was measured and the relative value (−fold) of each phosphoenzyme was calculated in the same manner as in Example 3, except that: a medium to which 2-Cl—C.OXT-A had been added so as to achieve predetermined concentrations (0, 10 and 100 μmol/l) and a medium to which 100 μmol/l C.OXT-G had been added were used; the culture period after the addition was set to 20 minutes: as the primary antibodies, only an anti-phospho ERK polyclonal antibody (Catalog No. 9101, Cell Signaling Technology) and an anti-total ERK monoclonal antibody (Catalog No. 610408, BD Transduction Laboratory) were used; as the secondary antibody for ERK, a sheep HRP-labeled anti-mouse IgG antibody (Pierce) was used; and as a secondary antibody of pERK, a sheep HRP-labeled anti-rabbit IgG antibody (Pierce) was used.
# In the present example, the effect of PD98059 as an MEK inhibitor on the ERK activation (phosphorylation) by 2-Cl—C.OXT-A used in Example 1 was examined. […]
# [1] = test system: rat adrenal medulla-derived cell line PC12; experiment: Differentiation of PC12 cells, AChE activity (Ellman's method); type: cell-based; conditions: 2-Cl—C.OXT-A 50 μmol/l and 100 μmol/l, sixth day of culture
# Procedure: Three samples were prepared by adding additives shown in Table 5 below to PBS so as to achieve predetermined concentrations. Also, an evaluation medium was prepared by adding each sample or PBS to DMEM (no serum) so that its concentration became 10 v/v %. Furthermore, as a control medium, a medium containing only DMEM (no serum) was prepared. The PC12 cells were suspended at a density of 5×10^4 cells/ml in DMEM to which 5 v/v % cow serum and 10 v/v % horse serum had been added. Thus, a cell suspension was prepared. 3 ml of the cell suspension was inoculated into a 6 petri dish. […] On the sixth day of the culture, the cells were photographed under a microscope, and the AChE activity was measured according to the Ellman's method (Ellman, G. L., et al., Biochem. Pharmacol., 7, pp. 88-95, (1961)). Specifically, the AChE activity was measured in the following manner. […] The sample solution, 75 μl of 10 mmol/l DTNB, and 3.0 ml of 0.1 mol/l phosphate buffer solution (pH 8.0) were added to a […] for absorbance measurement, and finally, 50 μl of 100 mmol/l acetylthiocholine was added to cause a reaction. The absorbance of the reaction solution at 412 nm was measured for 5 minutes from immediately after the addition of the ace tylthiocholine. From the thus-measured absorbances, the amount of increase in absorbance (C) per minute was determined. […]
smiles,measurement,setting,value
"Nc1nc(Cl)nc2c1ncn2C1CC(CO)C1CO (stereo not drawn) [2-Cl—C.OXT-A, 6-amino-2-chloro-9-[trans-trans-2,3-bis(hydroxymethyl)cyclobutyl]purine]",relative value (−fold) of pERK,"ERK; Example 3, 20 minutes after the addition",about 11 fold
same,"pERK, concentration dependence","ERK; Example 4, 0, 10 and 100 μmol/l, 20 minutes",increased in a manner dependent on the concentration
same,relative value (−fold) of pERK,"ERK; Example 4, 20 minutes",about 10 fold
same,pERK,"ERK; Example 6, medium No. 2: 2-Cl—C.OXT-A 100 μmol/l, no PD98059",increased
same,AChE enzyme activity (relative value),[1],increased
